Key:
Format in all cases: physicochemical
[1] = XRPD of the mixed powder in the study on the mixing process (crystal form stability); conditions: mixed powder of Example 1, mixing process
[2] = Hygroscopicity of the active pharmaceutical ingredient; conditions: active pharmaceutical ingredient (API)
[3] = Solubility / biopharmaceutical classification

- crystal form of zanubrutinib in the process (XRPD) [1]: remained unchanged
- hygroscopicity [2]: slightly hygroscopic
- class of the biopharmaceutical classification system [3]: class II
- solubility [3]: pH-dependent
SMILES: C=CC(=O)N1CCC([C@@H]2CCNc3c(C(N)=O)c(-c4ccc(Oc5ccccc5)cc4)nn32)CC1 [zanubrutinib, (S)-7-[4-(1-acryloylpiperidine)]-2-(4-phenoxyphenyl)-4,5,6,7-tetrahydropyrazolo[1,5-a]pyrimidine-3-carboxamide]
